For data set [1], the target named is T1, PI3K-β kinase (p110β/p85α) (Homo sapiens, UniProt P42338).
T1 construct: purchased Millipore 14-603
Description: Determination of PI3K kinase activity (ADP Transcreener, fluorescence polarization). In kind it is biochemical. Particulars: Table 1; ATP 10 μM; read-out: PI3K-β/nM (IC50 of inhibitory activity against PI3K kinase). On the technique in general: Fluorescence polarisation rises when a labelled molecule tumbles more slowly, as on binding a larger partner.

For data set [2], the target named is T2, PI3K-δ kinase (p110δ/p85α) (Homo sapiens, UniProt O00329).
T2 construct: purchased Millipore 14-604M
T2 sequence (O00329 whole entry): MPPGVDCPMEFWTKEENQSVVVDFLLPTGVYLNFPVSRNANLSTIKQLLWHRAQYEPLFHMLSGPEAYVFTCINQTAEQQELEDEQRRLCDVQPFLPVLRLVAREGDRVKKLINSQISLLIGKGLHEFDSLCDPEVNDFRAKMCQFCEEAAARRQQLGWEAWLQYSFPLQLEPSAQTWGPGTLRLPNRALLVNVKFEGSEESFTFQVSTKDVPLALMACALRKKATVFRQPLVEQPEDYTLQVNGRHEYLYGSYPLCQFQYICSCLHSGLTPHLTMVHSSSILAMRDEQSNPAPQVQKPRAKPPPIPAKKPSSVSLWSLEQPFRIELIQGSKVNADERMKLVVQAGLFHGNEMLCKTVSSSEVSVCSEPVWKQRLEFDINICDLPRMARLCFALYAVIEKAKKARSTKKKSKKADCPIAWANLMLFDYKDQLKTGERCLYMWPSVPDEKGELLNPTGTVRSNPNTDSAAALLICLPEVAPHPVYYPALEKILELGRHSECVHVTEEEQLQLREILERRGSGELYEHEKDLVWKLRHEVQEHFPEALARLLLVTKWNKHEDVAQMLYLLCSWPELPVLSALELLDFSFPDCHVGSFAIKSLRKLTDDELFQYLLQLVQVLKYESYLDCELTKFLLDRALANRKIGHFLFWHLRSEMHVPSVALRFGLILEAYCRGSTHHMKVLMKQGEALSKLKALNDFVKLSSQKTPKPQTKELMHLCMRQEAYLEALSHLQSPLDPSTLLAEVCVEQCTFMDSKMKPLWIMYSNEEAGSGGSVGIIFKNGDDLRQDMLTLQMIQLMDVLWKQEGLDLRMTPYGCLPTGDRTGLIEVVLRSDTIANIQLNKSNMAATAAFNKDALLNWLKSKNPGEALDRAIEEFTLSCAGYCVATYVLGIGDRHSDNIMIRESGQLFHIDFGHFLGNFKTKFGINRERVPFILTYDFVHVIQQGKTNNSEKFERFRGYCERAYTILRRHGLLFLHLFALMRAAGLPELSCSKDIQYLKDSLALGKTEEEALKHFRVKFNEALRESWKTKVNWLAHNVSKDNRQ
T2 sequence (P27986 whole entry partner): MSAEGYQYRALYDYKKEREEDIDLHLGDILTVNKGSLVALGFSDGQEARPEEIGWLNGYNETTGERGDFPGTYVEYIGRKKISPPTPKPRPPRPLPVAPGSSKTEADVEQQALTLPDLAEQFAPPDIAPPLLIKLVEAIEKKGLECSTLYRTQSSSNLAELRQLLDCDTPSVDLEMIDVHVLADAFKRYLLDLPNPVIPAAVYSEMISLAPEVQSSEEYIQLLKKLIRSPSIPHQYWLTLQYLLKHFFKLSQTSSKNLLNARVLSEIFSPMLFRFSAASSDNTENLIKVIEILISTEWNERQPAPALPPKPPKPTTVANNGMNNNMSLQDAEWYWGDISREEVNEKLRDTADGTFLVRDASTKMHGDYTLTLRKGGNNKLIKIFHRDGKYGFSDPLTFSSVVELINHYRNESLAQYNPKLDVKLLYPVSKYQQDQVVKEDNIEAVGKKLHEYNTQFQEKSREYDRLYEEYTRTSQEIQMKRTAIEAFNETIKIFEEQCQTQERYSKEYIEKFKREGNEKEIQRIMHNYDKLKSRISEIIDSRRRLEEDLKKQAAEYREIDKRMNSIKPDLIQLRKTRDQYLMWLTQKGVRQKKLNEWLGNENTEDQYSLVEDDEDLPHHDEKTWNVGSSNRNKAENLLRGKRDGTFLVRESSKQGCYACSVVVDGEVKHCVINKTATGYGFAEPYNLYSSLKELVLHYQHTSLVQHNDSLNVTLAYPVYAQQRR
Described as above. In kind it is biochemical. The settings on record: Table 1; ATP 10 μM; read-out: PI3K-δ/nM (IC50 of inhibitory activity against PI3K kinase).

Data set [3] has as its target T3, PI3K-γ kinase (p110γ) (Homo sapiens, UniProt P48736).
T3 construct: purchased Invitrogen PV4786
The data set is described as above. It is filed as biochemical. Particulars: Table 1; ATP 10 μM; read-out: PI3K-γ/nM (IC50 of inhibitory activity against PI3K kinase). Summed up:
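Each 25 μL reaction held PI3K enzyme (p110α/p85α 3 ng, p110β/p85α 60 ng, p110δ/p85α 90 ng, or p110γ 100 ng), 10 μM ATP, 30 μM PIP2:PS and 2% DMSO, incubated 1 h at 25 °C. Compounds were tested in duplicate across a 3-fold series, 0.00046–1 μM as prepared. ADP was detected by Transcreener fluorescence polarization, quantified against an ADP/ATP standard curve, and IC50 fitted.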

Data set [4] concerns NIH3T3 cells. Description: Cytotoxicity by MTT assay, NIH3T3. Particulars: cytotoxicity class, read-out: NIH3T3 cell (IC50/nM). It is filed as cell-based. In general terms: Tetrazolium assays rely on reduction of a dye to a coloured formazan, in cell work by metabolically active cells.
A short description of data set [5]: Metabolism stability assay in liver microsomes. In kind it is in vitro ADME, mouse. The settings on record: liver microsomal metabolism in mice. As for the experimental part: Buffer A: 1 L solution of 100 mM potassium dihydrogen phosphate containing 1 mM EDTA (Sigma, V900157-100G) was prepared. Buffer B: 1 L solution of 100 mM dipotassium hydrogen phosphate containing 1 mM EDTA was prepared. Buffer C: 700 mL of buffer B was taken out and titrated with buffer A to pH 7.4.
2.1 10 μl of 10 mM compound to be tested and 10 μl of 10 mM ketanserin were taken out and 190 μl of pure acetonitrile was added to each of them to prepare 500 μM compound to be tested and ketanserin, respectively.
2.2 20 μl (20 mg/mL) of liver microsomes (XENOTECH, H0610) stock solution was added to 513.4 μl of buffer C on wet ice. 0.75 mg/mL liver microsomal solution was obtained.
2.3 1.5 μl of each of the above-mentioned compound to be tested and ketanserin solution was added to 498.5 μl of liver microsomal solution (0.7 5 mg/mL) respectively on wet ice. 1.5 μM mixed solution of compound to be tested and 1.5 μM mixed solution of ketanserin were obtained.
2.4 At the time points 0, 5, 15, 30, 45, and 60 min, 30 μl of the mixed solution of compound to be tested and 30 μl of the mixed solution of ketanserin were dispensed into the reaction plate on wet ice, respectively.
2.5 5 mg reduced coenzyme II (Roche, 10621706001) was weighed and dissolved in 1 mL of buffer C. 6 mM reduced coenzyme II solution was obtained. The reduced coenzyme II solution was dispensed into the reaction plate.
2.6 Imipramine was dissolved to give a 10 mM solution. 10 μl imipramine solution was added to 100 mL of blank acetonitrile to generate the internal reference.
2.7 At 0 min, 135 μL of iced acetonitrile (Merck, UN 1648) containing the internal reference was added to each well and then 15 μL of buffer C was added.
2.8 The reaction plate was placed into a 37° C. water bath incubator for 5 min. In the reaction plate, 15 μL of reduced coenzyme II solution was added to each well to initiate the reaction, and the time keeping was started. At the time points of 5, 15, 30, 45, and 60 min, 135 μL of iced acetonitrile containing the internal reference was added to each well to terminate the reaction.
2.9 The reaction plate was sealed with an aluminum film, placed on a vibration mixer and shaken at 500 rpm for 5 min. The plate was then centrifuged in a centrifuge at 3750 rp for 15 min.
2.10 The sample was diluted with pure water in accordance with the ratio of 1:1 and detected by LC/MS.
Half-life: 0.693/K (the slope by plotting based on the incubation time and logarithm of the concentration value)
Clearance ratio: (0.693/half-life)*(1/protein concentration (0.5 mg/mL))*(proportional factor)
Wherein, the K value and the proportional factor were calculated by those skilled in the art according to the methods described in the prior art and contained in the instructions of the liver microsome product.
In general terms: Microsomes from liver hold many membrane-bound enzymes, among them those of drug oxidation.

Data set [6] addresses T4, PI3K-α kinase (p110α/p85α) (Homo sapiens, UniProt P42336).
T4 construct: purchased Invitrogen PV4788
Description: Determination of PI3K kinase activity (ADP Transcreener, fluorescence polarization). It is filed as biochemical. Particulars: ATP 10 μM.

Data set [7] deals with Akt phosphorylation (Ser473-p-Akt) in PC-3 cells. Description: Inhibition of p-Akt phosphorylation level in PC-3 cells (cell level fluorescence imaging). In kind it is cell-based. The settings on record: Akt phosphorylation in PC-3 cells, 2 hours incubation; read-out: PC-3 cell (IC50/nM). As for the experimental part: This experiment was performed by cell level fluorescence image processing method.
Triton X-100: 10% aqueous Triton X-100 solution (Sigma T8787-100 mL) was prepared, stored at 4° C. and diluted by 1:100 to give 0.1% Triton X-100 aqueous solution for use in the experiment.
Prodium Iodide (PI): 1 mg/mL (1.5 mM) PI (Sigma P4170) storage solution was prepared with PBS and stored at −25° C. in the dark. For use, the PI storage solution was diluted with PBS by 1:1000 to give a 1.5 μM solution and used in dark.
PC-3 cells in logarithmic growth phase were digested with 0.25% EDTA trypsin. 3000 cells/90 μL were seeded in a 96-well plate (BD 356692) and cultured at 37° C. and 5% CO2. After the cells adhered, 10 μL of the compound to be tested which was gradiently diluted 3 times (0.0046 to 10 μM, 8 concentration points, in duplicate) was added and incubated for 2 hours, followed by addition of 100 μL of 4% paraformaldehyde (DINGGUO AR-0211) and incubated at room temperature for 45 minutes. Then 100 μL of 0.1% Triton X-100 solution was added and incubated for another 30 minutes.
Triton X-100 solution was removed and the cells were rinsed with 200 μl of PBS twice (300 rpm vibration for 1 minute). The blocking solution (1% BSA solution in PBS) (Genview FA016-100G) was added and incubated at room temperature for 2 hours. The plate was rinsed with PBS once (300 rpm, 1 min) and 30 μL of Ser473-p-Akt antibody (cell signaling 4060L) diluted with 0.1% BSA was added and incubated overnight at 4° C. Ser473-p-Akt antibody was removed and the plate was rinsed with PBS twice (300 rpm, 1 minute). 35 μL of Alexa Flour 488 donkey anti-rabbit IgG (Invitrogen A21206) was added and incubated at room temperature for 1.5 hours. The plate was rinsed with PBS twice (300 rpm, 1 minute) and 35 μL of 1.5 μM PI was added and incubated at room temperature for 0.5 h. The fluorescence intensity was measured with Acumen eX3 (TTP LabTech).
10 μM BEZ235 (Selleck S1009) treatment group was negative control and DMSO treatment group was positive control. Inhibition ratio %=[1−(the mean value of the fluorescence intensity of the compound to be tested−the mean value of the fluorescence intensity of the negative control group)/(the mean value of the fluorescence intensity of the positive control group−the mean value of the fluorescence intensity of the negative control group)]×100%

In data set [8] the test system is T47D cells. Description: Cell inhibitory activity detected by MTT assay, T47D. It is filed as cell-based. Particulars: 72 h, read-out: T47D cell (IC50/nM), cell growth inhibition.

Like-named read-outs stand apart in the source and are kept apart here.

T3 sequence (P48736 whole entry): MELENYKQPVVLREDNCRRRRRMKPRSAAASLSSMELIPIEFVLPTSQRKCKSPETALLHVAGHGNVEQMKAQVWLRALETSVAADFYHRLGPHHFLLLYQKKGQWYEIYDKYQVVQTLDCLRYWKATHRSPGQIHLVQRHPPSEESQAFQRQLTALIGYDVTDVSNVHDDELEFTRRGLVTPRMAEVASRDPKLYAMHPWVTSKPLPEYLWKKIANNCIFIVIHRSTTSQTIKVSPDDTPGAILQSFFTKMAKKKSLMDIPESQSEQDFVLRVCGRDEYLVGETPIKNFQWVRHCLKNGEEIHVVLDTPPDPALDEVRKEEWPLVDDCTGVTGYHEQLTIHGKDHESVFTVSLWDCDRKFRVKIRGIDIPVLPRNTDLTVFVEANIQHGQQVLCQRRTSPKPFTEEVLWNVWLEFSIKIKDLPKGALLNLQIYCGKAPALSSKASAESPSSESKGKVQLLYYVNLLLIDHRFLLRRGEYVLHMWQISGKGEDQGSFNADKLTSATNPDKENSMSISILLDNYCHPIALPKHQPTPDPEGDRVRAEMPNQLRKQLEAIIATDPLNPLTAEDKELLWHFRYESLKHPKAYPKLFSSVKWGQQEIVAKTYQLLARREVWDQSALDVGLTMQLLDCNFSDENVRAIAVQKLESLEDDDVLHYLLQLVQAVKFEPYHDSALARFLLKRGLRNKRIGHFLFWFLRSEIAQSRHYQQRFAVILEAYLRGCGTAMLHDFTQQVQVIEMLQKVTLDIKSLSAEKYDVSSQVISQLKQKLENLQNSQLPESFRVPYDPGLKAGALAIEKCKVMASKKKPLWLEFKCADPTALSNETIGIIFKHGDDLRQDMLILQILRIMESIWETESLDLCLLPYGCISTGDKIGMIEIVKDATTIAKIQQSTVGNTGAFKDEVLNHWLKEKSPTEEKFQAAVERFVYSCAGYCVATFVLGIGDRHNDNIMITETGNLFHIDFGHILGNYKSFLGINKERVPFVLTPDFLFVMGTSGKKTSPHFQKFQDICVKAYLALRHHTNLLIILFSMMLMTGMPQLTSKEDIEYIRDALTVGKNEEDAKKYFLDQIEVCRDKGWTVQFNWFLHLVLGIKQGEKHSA
T1 sequence (P42338 whole entry): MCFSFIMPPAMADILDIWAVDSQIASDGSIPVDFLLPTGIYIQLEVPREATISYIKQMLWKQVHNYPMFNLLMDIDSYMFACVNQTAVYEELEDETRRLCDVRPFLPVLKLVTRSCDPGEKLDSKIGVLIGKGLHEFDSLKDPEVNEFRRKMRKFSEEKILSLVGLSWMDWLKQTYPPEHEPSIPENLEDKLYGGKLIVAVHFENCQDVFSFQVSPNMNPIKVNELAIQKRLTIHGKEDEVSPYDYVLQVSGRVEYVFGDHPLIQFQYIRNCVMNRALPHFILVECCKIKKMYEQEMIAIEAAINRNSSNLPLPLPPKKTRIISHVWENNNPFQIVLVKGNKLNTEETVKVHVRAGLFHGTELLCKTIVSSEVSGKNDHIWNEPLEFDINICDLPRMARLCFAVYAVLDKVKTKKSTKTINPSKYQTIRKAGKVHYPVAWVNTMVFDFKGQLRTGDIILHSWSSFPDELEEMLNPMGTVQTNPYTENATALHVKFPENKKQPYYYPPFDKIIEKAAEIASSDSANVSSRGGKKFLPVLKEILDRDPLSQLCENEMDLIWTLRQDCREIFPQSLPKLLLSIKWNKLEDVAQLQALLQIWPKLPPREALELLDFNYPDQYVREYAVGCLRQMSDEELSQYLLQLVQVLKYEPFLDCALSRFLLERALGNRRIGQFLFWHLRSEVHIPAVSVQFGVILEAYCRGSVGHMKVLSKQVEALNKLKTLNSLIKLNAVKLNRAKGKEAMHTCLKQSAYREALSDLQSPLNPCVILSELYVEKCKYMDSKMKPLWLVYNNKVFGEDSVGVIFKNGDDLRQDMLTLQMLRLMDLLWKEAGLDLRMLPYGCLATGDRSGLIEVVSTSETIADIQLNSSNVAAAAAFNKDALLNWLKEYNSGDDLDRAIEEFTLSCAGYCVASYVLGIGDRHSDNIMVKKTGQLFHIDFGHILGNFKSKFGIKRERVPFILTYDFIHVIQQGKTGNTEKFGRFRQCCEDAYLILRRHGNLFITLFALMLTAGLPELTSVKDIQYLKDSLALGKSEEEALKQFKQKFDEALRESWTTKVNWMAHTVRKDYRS
T1 sequence (P27986 whole entry partner): as the sequence (P27986 whole entry partner) above
T4 sequence (P42336 whole entry): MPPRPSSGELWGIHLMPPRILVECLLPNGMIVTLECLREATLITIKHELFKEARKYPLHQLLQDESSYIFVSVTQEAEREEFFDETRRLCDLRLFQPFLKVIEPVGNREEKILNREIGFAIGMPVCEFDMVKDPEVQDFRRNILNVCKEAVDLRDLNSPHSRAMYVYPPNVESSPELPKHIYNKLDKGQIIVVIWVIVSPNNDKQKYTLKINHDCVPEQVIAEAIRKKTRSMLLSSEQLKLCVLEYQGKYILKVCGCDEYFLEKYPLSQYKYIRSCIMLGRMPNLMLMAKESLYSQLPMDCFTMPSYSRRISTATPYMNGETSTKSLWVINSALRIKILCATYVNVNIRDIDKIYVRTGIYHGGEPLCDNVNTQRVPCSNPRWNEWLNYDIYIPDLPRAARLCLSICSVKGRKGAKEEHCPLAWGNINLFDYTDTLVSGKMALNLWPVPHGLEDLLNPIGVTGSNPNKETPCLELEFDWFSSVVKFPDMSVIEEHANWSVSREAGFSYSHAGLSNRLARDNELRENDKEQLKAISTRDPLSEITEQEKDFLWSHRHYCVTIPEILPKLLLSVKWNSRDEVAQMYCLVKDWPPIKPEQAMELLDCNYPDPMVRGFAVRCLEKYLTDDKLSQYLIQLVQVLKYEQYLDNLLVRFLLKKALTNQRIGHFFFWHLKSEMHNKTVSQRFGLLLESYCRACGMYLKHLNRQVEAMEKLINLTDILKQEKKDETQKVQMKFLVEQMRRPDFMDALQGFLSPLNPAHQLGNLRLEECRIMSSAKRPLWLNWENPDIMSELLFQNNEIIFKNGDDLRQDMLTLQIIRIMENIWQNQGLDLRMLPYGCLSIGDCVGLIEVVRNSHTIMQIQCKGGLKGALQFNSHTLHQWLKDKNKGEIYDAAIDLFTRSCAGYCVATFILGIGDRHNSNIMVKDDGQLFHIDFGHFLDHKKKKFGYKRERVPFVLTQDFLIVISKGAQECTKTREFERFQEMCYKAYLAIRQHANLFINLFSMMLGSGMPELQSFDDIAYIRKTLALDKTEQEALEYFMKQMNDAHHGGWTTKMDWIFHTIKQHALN
T4 sequence (P27986 whole entry partner): as the sequence (P27986 whole entry partner) above

With `CC(C)(c1cc(-c2cnc(N)cc2C(F)(F)F)nc(N2CCOCC2)n1)S(=O)(=O)c1ccccc1` [Compound S-21], the IC50 in data set [1] is 832 nM; in data set [2] it was 214 nM; in data set [3], 843 nM; in data set [4] (Mus musculus, NIH3T3, 72 h), 1000 to 3000 nM. The “Clearance ratio (mL/min/kg) mouse” value in data set [5] came out at 6337.31 mL/min/kg.

In the case of `CC(C)(O)c1cc(-c2cnc(N)cc2C(F)(F)F)nc(N2CCOCC2)n1` [Compound S-50, 2-(6-(6-amino-4-(trifluoromethyl)pyridin-3-yl)-2-morpholin-4-yl)propan-2-ol], the IC50 is 39 nM in data set [6] (Table 2, read-out: PI3K-α/nM (IC50 of inhibitory activity against PI3K-α kinase)); 39 nM in data set [7]; 449 nM in data set [8]; 1000 to 3000 nM in data set [4] (72 h).

For `Nc1cc(C(F)(F)F)c(-c2cc(C3(S(=O)(=O)c4ccc(F)cc4)CC3)nc(N3CCOCC3)n2)cn1` [Compound S-59], the IC50 in data set [6] (Table 1, read-out: PI3K-α/nM (IC50 of inhibitory activity against PI3K kinase)) is 37 nM; in data set [1], 721 nM; in data set [2] it was 235 nM; in data set [3], 813 nM; in data set [4] (Mus musculus, NIH3T3, 72 h), 1000 to 3000 nM. The “Clearance ratio (mL/min/kg) mouse” value in data set [5] was 7163.43 mL/min/kg.
